Experimental data from ChEMBL document CHEMBL5584258, “Synthesis, biosimulation and pharmacological evaluation of benzimidazole derivatives with antihypertensive multitarget effect” (Bioorg Med Chem Lett, 2024).
The source made the active and inactive calls. The rule behind the calls is not given here.

Tests used:
[1] = tested on: Aorta; assay: Vasorelaxant activity in rat aorta assessed as relaxation of noradrenaline-induced vascular contraction at 10 uM relative to control; type: functional; parameters: scale not given: the % may be the effect or the level left
[2] = tested on: Aorta; assay: Vasorelaxant activity in rat aorta assessed as relaxation of noradrenaline-induced vascular contraction at 10 uM incubated in presence of endothelium; type: functional, tissue-based
[3] = tested on: Aorta; assay: Vasorelaxant activity in rat aorta assessed as relaxation of noradrenaline-induced vascular contraction at 10 uM incubated in absence of endothelium; type: functional, tissue-based
[4] = biological target: Voltage-gated L-type calcium channel (Rattus norvegicus, UniProt P22002+Q02485+P27732); assay: Inhibition of L-type calcium channel in rat aorta assessed as vasorelaxation of thoracic aorta in presence of endothelium; type: tissue-based
[5] = organism: Rattus norvegicus; assay: Antagonist activity at AT1 Ang II receptor in noradrenaline sensitized rat aorta assessed as inhibition of angiotensin II induced contraction at 10 uM preincubated for 15 mins followed by angiotensin II addition; type: tissue-based; details: filed as antagonist
[6] = organism: Rattus norvegicus; assay: Antagonist activity at AT1 Ang II receptor in rat kidney assessed as reduction in angiotensin II induced renal perfusion pressure at 1 uM measured after […]; type: tissue-based; details: time […]
[7] = tested on: Rattus norvegicus; assay: Antihypertensive activity in spontaneously hypertensive rat assessed as reduction in systolic blood pressure at 20 mg/kg, ip measured for 6 hrs by tail-cuff method; type: functional, organism-based
[8] = tested on: Rattus norvegicus; assay: Antihypertensive activity in spontaneously hypertensive rat assessed as reduction in systolic blood pressure at 5 mg/kg, ip measured for 6 hrs by tail-cuff method; type: functional, organism-based

Activity [6] | SMILES | Activity [5] | other results
– | O=C(O)c1ccc2[nH]c(SCc3ccc(-c4ccccc4-c4nnn[nH]4)cc3)nc2c1 | Active | Activity [1]: 88.7%; Activity [2]: Active; Activity [3]: Active; IC50 [4]: 570 nM; Activity ([6]; filed as antagonist): Active; Activity [7]: Active
inactive | O=C(Nc1nnn[nH]1)c1ccc(CSc2nc3c(C(=O)O)cccc3[nH]2)cc1 | Active | –
inactive | Cc1ccc2[nH]c(SCc3ccc(C(=O)Nc4nnn[nH]4)cc3)nc2c1 | Active | –
– | CCCc1nc2c(C)cc(-c3nc4ccccc4n3C)cc2n1Cc1ccc(-c2ccccc2C(=O)O)cc1 | Active | Activity ([6]; filed as antagonist): Active; Activity [8]: Active
inactive | O=C(O)c1cccc2[nH]c(SCc3ccc(-c4ccccc4-c4nnn[nH]4)cc3)nc12 | Active | Activity [1]: 57.3%; Activity [2]: Active
inactive | O=[N+]([O-])c1ccc2[nH]c(SCc3ccc(-c4ccccc4-c4nnn[nH]4)cc3)nc2c1 | Active | –
inactive | O=C(O)c1ccc2[nH]c(SCc3ccc(C(=O)Nc4nnn[nH]4)cc3)nc2c1 | Active | –
inactive | O=C(Nc1nnn[nH]1)c1ccc(CSc2nc3cc([N+](=O)[O-])ccc3[nH]2)cc1 | Active | –
